# Legend:
# [1] = tested on: ASPC-1 tumor-bearing mice; experiment: Biodistribution of radionuclide labeled complexes in ASPC-1 tumor-bearing mice; assay type: in vivo, BALB/c nude mice
# In short: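 BALB/c nude mice bore subcutaneous flank xenografts from ~4×10^6 NTSR-1-expressing cells, grown 2-4 weeks to ~0.05-0.50 g. Labeled compound, ~30-50 μCi (30-250 μCi/nmol specific activity) in 0.9% NaCl, was given by tail vein; organs were excised, weighed and γ-counted at various times for % ID and % ID/g.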
# HT-29 tumor-bearing mice = experiment: Biodistribution of radionuclide labeled complexes in HT-29 tumor-bearing mice; assay type: in vivo, BALB/c nude mice
# Description: The BALB/c nude mice (Charles River, Beijing) were utilized to establish the xenografted model for biodistribution study. All animal care and experimental procedure were performed by following the animal protocols approved by the ethics committee of China Institute of Radiation Protection.
# Briefly, each mouse was inoculated with approximately 4×10^6 ASPC-1 cells (human pancreatic cancer cell line) or HT-29 cells (human colorectal adenocarcinoma cell line) expressing human NTSR-1 by subcutaneous injection at rear flank. After inoculation, the xenografted tumors were allowed to grow for ˜2-4 weeks till the tumor weight reached to about 0.05 to 0.50 g (0.20 g in average).
# Biodistribution studies were performed by administrating the radionuclide labeled test compound at a dose of ˜30-50 μCi (100 μL in 0.9% NaCl, ˜1.11-1.85 MBq, with specific activity 30-250 μCi/nmol) to each animal through tail vein injection.
# At different time points after the administration, the mice treated with each compound were euthanized. The tissues and organs of the animals in each group were collected, excised, weighed, and analyzed in a PerkinElmer 2480 WIZARD2γ counter, and the percent injected dose (% ID) and % ID/g of each organ or tissue were calculated.
# [2] = tested on: ASPC-1 tumor-bearing mice; experiment: SPECT/CT imaging of ^177Lu-labeled complexes; assay type: in vivo; conditions: over 72 hours
# Description: ASPC-1 tumor-bearing mice were IV-injected with about 120 μCi of ^177Lu-labeled complexes, then anesthetized under 2% isoflurane/oxygen gas and placed on the scanner. SPECT/CT images were acquired in three bed positions for 30 min using a MILabs SPECT scanner. Whole-body SPECT images were acquired at 1 h, 4 h, 24 and 72 h after injecting the radiotracers.
smiles,measurement,setting,value
COc1cccc(OC)c1-c1cc(C(=O)NC2(C(=O)O)C3CC4CC(C3)CC2C4)nn1-c1ccc(NC(=O)CCCN(C)CCCN(C)C(=O)CN2CCN(CC(=O)[O-])CCN(CC(=O)[O-])CCN(CC(=O)[O-])CC2)cc1C(C)C.[177Lu+3] (stereo not shown) [^177Lu-I-5],tumor AUC over 72 hours compared to ^177Lu—C2,[1],significantly higher tumor AUC
same,% ID/g (4 h) Blood,"[1]; Blood, 4 h",15.51 ± 0.77 % ID/g
same,% ID/g (24 h) Blood,"[1]; Blood, 24 h",0.09 ± 0.01 % ID/g
same,% ID/g (72 h) Blood,"[1]; Blood, 72 h",0.02 ± 0 % ID/g
same,% ID/g (4 h) Femur,"[1]; Femur, 4 h",2.21 ± 0.63 % ID/g
same,% ID/g (24 h) Femur,"[1]; Femur, 24 h",0.38 ± 0.23 % ID/g
same,% ID/g (72 h) Femur,"[1]; Femur, 72 h",0.17 ± 0.09 % ID/g
same,% ID/g (4 h) Heart,"[1]; Heart, 4 h",2.82 ± 1.88 % ID/g
same,% ID/g (24 h) Heart,"[1]; Heart, 24 h",2.18 ± 2.71 % ID/g
same,% ID/g (72 h) Heart,"[1]; Heart, 72 h",0.15 ± 0.13 % ID/g
same,% ID/g (4 h) Intestine,"[1]; Intestine, 4 h",1.81 ± 0.87 % ID/g
same,% ID/g (24 h) Intestine,"[1]; Intestine, 24 h",0.82 ± 0.31 % ID/g
same,% ID/g (72 h) Intestine,"[1]; Intestine, 72 h",0.51 ± 0.04 % ID/g
same,% ID/g (4 h) Kidney,"[1]; Kidney, 4 h",4.57 ± 2.28 % ID/g
same,% ID/g (24 h) Kidney,"[1]; Kidney, 24 h",1.37 ± 0.17 % ID/g
same,% ID/g (72 h) Kidney,"[1]; Kidney, 72 h",1.29 ± 0.49 % ID/g
same,% ID/g (4 h) Liver,"[1]; Liver, 4 h",3.87 ± 2.36 % ID/g
same,% ID/g (24 h) Liver,"[1]; Liver, 24 h",1.27 ± 0.29 % ID/g
same,% ID/g (72 h) Liver,"[1]; Liver, 72 h",0.96 ± 0.07 % ID/g
same,% ID/g (4 h) Lung,"[1]; Lung, 4 h",1.841 ± 0.07 % ID/g
same,% ID/g (24 h) Lung,"[1]; Lung, 24 h",0.33 ± 0.06 % ID/g
same,% ID/g (72 h) Lung,"[1]; Lung, 72 h",0.23 ± 0.07 % ID/g
same,% ID/g (4 h) Muscle,"[1]; Muscle, 4 h",1.29 ± 0.37 % ID/g
same,% ID/g (24 h) Muscle,"[1]; Muscle, 24 h",0.17 ± 0.08 % ID/g
same,% ID/g (72 h) Muscle,"[1]; Muscle, 72 h",0.05 ± 0.01 % ID/g
same,% ID/g (4 h) Pancreas,"[1]; Pancreas, 4 h",1.57 ± 0.5 % ID/g
same,% ID/g (24 h) Pancreas,"[1]; Pancreas, 24 h",0.3 ± 0.24 % ID/g
same,% ID/g (72 h) Pancreas,"[1]; Pancreas, 72 h",0.1 ± 0.04 % ID/g
same,% ID/g (4 h) Spleen,"[1]; Spleen, 4 h",2.39 ± 1.4 % ID/g
same,% ID/g (24 h) Spleen,"[1]; Spleen, 24 h",0.63 ± 0.05 % ID/g
same,% ID/g (72 h) Spleen,"[1]; Spleen, 72 h",0.34 ± 0.04 % ID/g
same,% ID/g (4 h) Stomach,"[1]; Stomach, 4 h",3.52 ± 0.4 % ID/g
same,% ID/g (24 h) Stomach,"[1]; Stomach, 24 h",0.28 ± 0.2 % ID/g
same,% ID/g (72 h) Stomach,"[1]; Stomach, 72 h",0.15 ± 0.05 % ID/g
same,% ID/g (4 h) Tumor,"[1]; Tumor, 4 h",27.56 ± 12.51 % ID/g
same,% ID/g (24 h) Tumor,"[1]; Tumor, 24 h",36.67 ± 18.25 % ID/g
same,% ID/g (72 h) Tumor,"[1]; Tumor, 72 h",12.83 ± 4.23 % ID/g
same,ratio of tumor AUC verse normal organ AUC,[1]; compared to ^177Lu—C2,significantly improved
same,% ID/g (1 h) Blood,"HT-29 tumor-bearing mice; Blood, 1 h",20.4 ± 1.06 % ID/g
same,% ID/g (4 h) Blood,"HT-29 tumor-bearing mice; Blood, 4 h",9.07 ± 1.42 % ID/g
same,% ID/g (24 h) Blood,"HT-29 tumor-bearing mice; Blood, 24 h",0.07 ± 0.02 % ID/g
same,% ID/g (72 h) Blood,"HT-29 tumor-bearing mice; Blood, 72 h",0.09 ± 0.07 % ID/g
same,% ID/g (120 h) Blood,"HT-29 tumor-bearing mice; Blood, 120 h",0.01 ± 0 % ID/g
same,% ID/g (1 h) Femur,"HT-29 tumor-bearing mice; Femur, 1 h",1.84 ± 1.19 % ID/g
same,% ID/g (4 h) Femur,"HT-29 tumor-bearing mice; Femur, 4 h",0.99 ± 0.18 % ID/g
same,% ID/g (24 h) Femur,"HT-29 tumor-bearing mice; Femur, 24 h",0.29 ± 0.1 % ID/g
same,% ID/g (72 h) Femur,"HT-29 tumor-bearing mice; Femur, 72 h",0.73 ± 0.82 % ID/g
same,% ID/g (120 h) Femur,"HT-29 tumor-bearing mice; Femur, 120 h",0.13 ± 0.05 % ID/g
same,% ID/g (1 h) Heart,"HT-29 tumor-bearing mice; Heart, 1 h",5.76 ± 1.66 % ID/g
same,% ID/g (4 h) Heart,"HT-29 tumor-bearing mice; Heart, 4 h",3.15 ± 0.43 % ID/g
same,% ID/g (24 h) Heart,"HT-29 tumor-bearing mice; Heart, 24 h",0.31 ± 0.07 % ID/g
same,% ID/g (72 h) Heart,"HT-29 tumor-bearing mice; Heart, 72 h",0.89 ± 0.56 % ID/g
same,% ID/g (120 h) Heart,"HT-29 tumor-bearing mice; Heart, 120 h",0.13 ± 0.02 % ID/g
same,% ID/g (1 h) Intestine,"HT-29 tumor-bearing mice; Intestine, 1 h",2.59 ± 0.76 % ID/g
same,% ID/g (4 h) Intestine,"HT-29 tumor-bearing mice; Intestine, 4 h",1.7 ± 0.53 % ID/g
same,% ID/g (24 h) Intestine,"HT-29 tumor-bearing mice; Intestine, 24 h",0.7 ± 0.39 % ID/g
same,% ID/g (72 h) Intestine,"HT-29 tumor-bearing mice; Intestine, 72 h",1.33 ± 0.88 % ID/g
same,% ID/g (120 h) Intestine,"HT-29 tumor-bearing mice; Intestine, 120 h",0.17 ± 0.06 % ID/g
same,% ID/g (1 h) Kidney,"HT-29 tumor-bearing mice; Kidney, 1 h",4.34 ± 2.82 % ID/g
same,% ID/g (4 h) Kidney,"HT-29 tumor-bearing mice; Kidney, 4 h",3.22 ± 1.54 % ID/g
same,% ID/g (24 h) Kidney,"HT-29 tumor-bearing mice; Kidney, 24 h",2.61 ± 0.72 % ID/g
same,% ID/g (72 h) Kidney,"HT-29 tumor-bearing mice; Kidney, 72 h",3.55 ± 2.21 % ID/g
same,% ID/g (120 h) Kidney,"HT-29 tumor-bearing mice; Kidney, 120 h",0.81 ± 0.23 % ID/g
same,% ID/g (1 h) Liver,"HT-29 tumor-bearing mice; Liver, 1 h",5.26 ± 1.02 % ID/g
same,% ID/g (4 h) Liver,"HT-29 tumor-bearing mice; Liver, 4 h",4.41 ± 1.88 % ID/g
same,% ID/g (24 h) Liver,"HT-29 tumor-bearing mice; Liver, 24 h",2.21 ± 0.36 % ID/g
same,% ID/g (72 h) Liver,"HT-29 tumor-bearing mice; Liver, 72 h",4.44 ± 3.4 % ID/g
same,% ID/g (120 h) Liver,"HT-29 tumor-bearing mice; Liver, 120 h",0.55 ± 0.3 % ID/g
same,% ID/g (1 h) Lung,"HT-29 tumor-bearing mice; Lung, 1 h",9.85 ± 2.58 % ID/g
same,% ID/g (4 h) Lung,"HT-29 tumor-bearing mice; Lung, 4 h",3.88 ± 1.04 % ID/g
same,% ID/g (24 h) Lung,"HT-29 tumor-bearing mice; Lung, 24 h",0.62 ± 0.32 % ID/g
same,% ID/g (72 h) Lung,"HT-29 tumor-bearing mice; Lung, 72 h",0.5 ± 0.19 % ID/g
same,% ID/g (120 h) Lung,"HT-29 tumor-bearing mice; Lung, 120 h",0.12 ± 0.1 % ID/g
same,% ID/g (1 h) Muscle,"HT-29 tumor-bearing mice; Muscle, 1 h",1.07 ± 0.14 % ID/g
same,% ID/g (4 h) Muscle,"HT-29 tumor-bearing mice; Muscle, 4 h",0.66 ± 0.21 % ID/g
same,% ID/g (24 h) Muscle,"HT-29 tumor-bearing mice; Muscle, 24 h",0.12 ± 0.04 % ID/g
same,% ID/g (72 h) Muscle,"HT-29 tumor-bearing mice; Muscle, 72 h",0.37 ± 0.34 % ID/g
same,% ID/g (120 h) Muscle,"HT-29 tumor-bearing mice; Muscle, 120 h",0.06 ± 0.02 % ID/g
same,% ID/g (1 h) Pancreas,"HT-29 tumor-bearing mice; Pancreas, 1 h",1.18 ± 0.61 % ID/g
same,% ID/g (4 h) Pancreas,"HT-29 tumor-bearing mice; Pancreas, 4 h",1.01 ± 0.71 % ID/g
same,% ID/g (24 h) Pancreas,"HT-29 tumor-bearing mice; Pancreas, 24 h",0.15 ± 0.06 % ID/g
same,% ID/g (72 h) Pancreas,"HT-29 tumor-bearing mice; Pancreas, 72 h",0.51 ± 0.5 % ID/g
same,% ID/g (120 h) Pancreas,"HT-29 tumor-bearing mice; Pancreas, 120 h",0.05 ± 0.02 % ID/g
same,% ID/g (1 h) Spleen,"HT-29 tumor-bearing mice; Spleen, 1 h",1.76 ± 0.41 % ID/g
same,% ID/g (4 h) Spleen,"HT-29 tumor-bearing mice; Spleen, 4 h",1.22 ± 0.16 % ID/g
same,% ID/g (24 h) Spleen,"HT-29 tumor-bearing mice; Spleen, 24 h",0.43 ± 0.09 % ID/g
same,% ID/g (72 h) Spleen,"HT-29 tumor-bearing mice; Spleen, 72 h",1.61 ± 1.35 % ID/g
same,% ID/g (120 h) Spleen,"HT-29 tumor-bearing mice; Spleen, 120 h",0.8 ± 0.32 % ID/g
same,% ID/g (1 h) Stomach,"HT-29 tumor-bearing mice; Stomach, 1 h",1.29 ± 0.31 % ID/g
same,% ID/g (4 h) Stomach,"HT-29 tumor-bearing mice; Stomach, 4 h",1.35 ± 0.68 % ID/g
same,% ID/g (24 h) Stomach,"HT-29 tumor-bearing mice; Stomach, 24 h",0.29 ± 0.11 % ID/g
same,% ID/g (72 h) Stomach,"HT-29 tumor-bearing mice; Stomach, 72 h",0.54 ± 0.53 % ID/g
same,% ID/g (120 h) Stomach,"HT-29 tumor-bearing mice; Stomach, 120 h",0.07 ± 0.01 % ID/g
same,% ID/g (1 h) Tumor,"HT-29 tumor-bearing mice; Tumor, 1 h",9.74 ± 2.44 % ID/g
same,% ID/g (4 h) Tumor,"HT-29 tumor-bearing mice; Tumor, 4 h",20.7 ± 2.21 % ID/g
same,% ID/g (24 h) Tumor,"HT-29 tumor-bearing mice; Tumor, 24 h",17.4 ± 4.53 % ID/g
same,% ID/g (72 h) Tumor,"HT-29 tumor-bearing mice; Tumor, 72 h",10.02 ± 6.15 % ID/g
same,% ID/g (120 h) Tumor,"HT-29 tumor-bearing mice; Tumor, 120 h",6.61 ± 1.12 % ID/g
same,clearance from other organs or tissues (SPECT/CT),[2],rapid clearance
same,retention in tumors (SPECT/CT),[2],sustained retention in tumors

# Source: patent US20240287046A1, “COMPOUNDS AND RADIOLIGANDS FOR TARGETING NEUROTENSIN RECEPTOR AND USES THEREOF” (Full-Life Technologies HK Limited, priority 2022, published 2024)
